# Key:
# Format in all cases: in vivo
# [1] = system: wheat (Triticum aestivum); test: Test A postemergence, wheat; settings: 0 to 100 scale (0 no effect, 100 complete control)
# Source text: (§1) Seeds of barnyardgrass (Echinochloa crus-galli), large crabgrass (Digitaria sanguinalis), giant foxtail (Setaria faberi), morningglory (Ipomoea spp.), pigweed (Amaranthus retroflexus), velvetleaf (Abutilon theophrasti), wheat (Triticum aestivum), and corn (Zea mays) were planted into a blend of loam soil and sand and treated preemergence with a directed soil spray using test chemicals formulated in a non-phytotoxic solvent mixture which included a surfactant. At the same time these species were also treated with postemergence applications of test compounds formulated in the same manner. Plants ranged in height from two to ten cm and were in the one- to two-leaf stage for the postemergence treatment. Treated plants and untreated controls were maintained in a greenhouse for approximately ten days, after which time all treated plants were compared to untreated controls and visually evaluated for injury. Plant response ratings, summarized in Table A, are based on a 0 to 100 scale where 0 is no effect and 100 is complete control. A dash (-) response means no test result.
# corn (Zea mays) [2] = test: Test A postemergence, corn; settings: 0 to 100 scale (0 no effect, 100 complete control)
# Source text: as §1
# [3] = system: giant foxtail (Setaria faberi); test: Test A preemergence, giant foxtail; settings: 0 to 100 scale (0 no effect, 100 complete control)
# Source text: as §1
# [4] = system: morningglory (Ipomoea spp.); test: Test A postemergence, morningglory; settings: 0 to 100 scale (0 no effect, 100 complete control)
# Source text: as §1
# [5] = system: ducksalad (Heteranthera limosa); test: Test B flooded paddy test, ducksalad; settings: Flood, scale 0 to 100
# Source text: (§2) Plant species in the flooded paddy test consisted of rice (Oryza sativa), umbrella sedge (Cyperus difformis), ducksalad (Heteranthera limosa) and barnyardgrass (Echinochloa crus-galli) grown to the 2-leaf stage for testing. At time of treatment, test pots were flooded to 3 cm above the soil surface, treated by application of test compounds directly to the paddy water, and then maintained at that water depth for the duration of the test. Treated plants and controls were maintained in a greenhouse for 13 to 15 days, after which time all species were compared to controls and visually evaluated. Plant response ratings, summarized in Table B, are based on a scale of 0 to 100 where 0 is no effect and 100 is complete control. A dash (-) response means no test result.
# [6] = system: pigweed (Amaranthus retroflexus); test: Test A postemergence, pigweed; settings: 0 to 100 scale (0 no effect, 100 complete control)
# Source text: as §1
# [7] = system: pigweed (Amaranthus retroflexus); test: Test A preemergence, pigweed; settings: 0 to 100 scale (0 no effect, 100 complete control)
# Source text: as §1
# [8] = system: velvetleaf (Abutilon theophrasti); test: Test A preemergence, velvetleaf; settings: 0 to 100 scale (0 no effect, 100 complete control)
# Source text: as §1
# [9] = system: barnyardgrass (Echinochloa crus-galli); test: Test A preemergence, barnyardgrass; settings: 0 to 100 scale (0 no effect, 100 complete control)
# Source text: as §1
# [10] = system: morningglory (Ipomoea spp.); test: Test A preemergence, morningglory; settings: 0 to 100 scale (0 no effect, 100 complete control)
# Source text: as §1
# [11] = system: giant foxtail (Setaria faberi); test: Test A postemergence, giant foxtail; settings: 0 to 100 scale (0 no effect, 100 complete control)
# Source text: as §1
# [12] = system: large crabgrass (Digitaria sanguinalis); test: Test A postemergence, large crabgrass; settings: 0 to 100 scale (0 no effect, 100 complete control)
# Source text: as §1
# [13] = system: wheat (Triticum aestivum); test: Test A preemergence, wheat; settings: 0 to 100 scale (0 no effect, 100 complete control)
# Source text: as §1
# [14] = system: barnyardgrass (Echinochloa crus-galli); test: Test A postemergence, barnyardgrass; settings: 0 to 100 scale (0 no effect, 100 complete control)
# Source text: as §1
# corn (Zea mays) [15] = test: Test A preemergence, corn; settings: 0 to 100 scale (0 no effect, 100 complete control)
# Source text: as §1
# [16] = system: umbrella sedge (Cyperus difformis); test: Test B flooded paddy test, umbrella sedge; settings: Flood, scale 0 to 100
# Source text: as §2
# [17] = system: velvetleaf (Abutilon theophrasti); test: Test A postemergence, velvetleaf; settings: 0 to 100 scale (0 no effect, 100 complete control)
# Source text: as §1
# [18] = system: large crabgrass (Digitaria sanguinalis); test: Test A preemergence, large crabgrass; settings: 0 to 100 scale (0 no effect, 100 complete control)
# Source text: as §1
# [19] = system: barnyardgrass (Echinochloa crus-galli); test: Test B flooded paddy test, barnyardgrass; settings: Flood
# Source text: as §2
# rice (Oryza sativa) = test: Test B flooded paddy test, rice; settings: Flood, scale 0 to 100
# Source text: as §2
# [20] = 250 g ai/ha, scale 0 to 100 (0 no effect, 100 complete control)
smiles,measurement,setting,value
CC1(C)CC([S+]([O-])Cc2c(C(F)(F)F)nc3n(c2=O)CCCO3)=NO1 (centres unmarked) [Compound 3],"Plant response rating, Wheat",[1]; 125 g ai/ha,0
same,"Plant response rating, Wheat",[1]; 500 g ai/ha,0
same,"Plant response rating, Corn",corn (Zea mays) [2]; 125 g ai/ha,0
same,"Plant response rating, Corn",corn (Zea mays) [2]; 500 g ai/ha,0
same,"Plant response rating, Foxtail, Giant",[3]; 125 g ai/ha,40
same,"Plant response rating, Foxtail, Giant",[3]; 500 g ai/ha,70
same,"Plant response rating, Morningglory",[4]; 125 g ai/ha,0
same,"Plant response rating, Morningglory",[4]; 500 g ai/ha,0
same,"Plant response rating, Ducksalad",[5]; 62 g ai/ha,0
same,"Plant response rating, Ducksalad",[5]; 250 g ai/ha,40
same,"Plant response rating, Pigweed",[6]; 125 g ai/ha,0
same,"Plant response rating, Pigweed",[6]; 500 g ai/ha,30
same,"Plant response rating, Pigweed",[7]; 125 g ai/ha,40
same,"Plant response rating, Pigweed",[7]; 500 g ai/ha,60
same,"Plant response rating, Velvetleaf",[8]; 125 g ai/ha,0
same,"Plant response rating, Velvetleaf",[8]; 500 g ai/ha,0
same,"Plant response rating, Barnyardgrass",[9]; 125 g ai/ha,30
same,"Plant response rating, Barnyardgrass",[9]; 500 g ai/ha,60
same,"Plant response rating, Morningglory",[10]; 125 g ai/ha,0
same,"Plant response rating, Morningglory",[10]; 500 g ai/ha,0
same,"Plant response rating, Foxtail, Giant",[11]; 125 g ai/ha,0
same,"Plant response rating, Foxtail, Giant",[11]; 500 g ai/ha,50
same,"Plant response rating, Crabgrass, Large",[12]; 125 g ai/ha,20
same,"Plant response rating, Crabgrass, Large",[12]; 500 g ai/ha,50
same,"Plant response rating, Wheat",[13]; 125 g ai/ha,0
same,"Plant response rating, Wheat",[13]; 500 g ai/ha,0
same,"Plant response rating, Barnyardgrass",[14]; 125 g ai/ha,0
same,"Plant response rating, Barnyardgrass",[14]; 500 g ai/ha,50
same,"Plant response rating, Corn",corn (Zea mays) [15]; 125 g ai/ha,0
same,"Plant response rating, Corn",corn (Zea mays) [15]; 500 g ai/ha,0
same,"Plant response rating, Sedge, Umbrella",[16]; 62 g ai/ha,0
same,"Plant response rating, Sedge, Umbrella",[16]; 250 g ai/ha,0
same,"Plant response rating, Velvetleaf",[17]; 125 g ai/ha,20
same,"Plant response rating, Velvetleaf",[17]; 500 g ai/ha,50
same,"Plant response rating, Crabgrass, Large",[18]; 125 g ai/ha,50
same,"Plant response rating, Crabgrass, Large",[18]; 500 g ai/ha,70
same,"Plant response rating, Barnyardgrass","[19]; 62 g ai/ha, scale 0 to 100",0
same,"Plant response rating, Barnyardgrass",[19]; [20],0
same,"Plant response rating, Rice",rice (Oryza sativa); 62 g ai/ha,0
same,"Plant response rating, Rice",rice (Oryza sativa); 250 g ai/ha,0
CC1(C)CC(S(=O)(=O)Cc2c(C(F)(F)F)nc3n(c2=O)CCCO3)=NO1 [Compound 4],"Plant response rating, Wheat",[1]; 125 g ai/ha,0
same,"Plant response rating, Wheat",[1]; 500 g ai/ha,10
same,"Plant response rating, Corn",corn (Zea mays) [2]; 125 g ai/ha,0
same,"Plant response rating, Corn",corn (Zea mays) [2]; 500 g ai/ha,50
same,"Plant response rating, Foxtail, Giant",[3]; 125 g ai/ha,90
same,"Plant response rating, Foxtail, Giant",[3]; 500 g ai/ha,100
same,"Plant response rating, Morningglory",[4]; 125 g ai/ha,0
same,"Plant response rating, Morningglory",[4]; 500 g ai/ha,50
same,"Plant response rating, Ducksalad",[5]; 31 g ai/ha,0
same,"Plant response rating, Ducksalad",[5]; 62 g ai/ha,0
same,"Plant response rating, Ducksalad",[5]; 125 g ai/ha,0
same,"Plant response rating, Ducksalad",[5]; 250 g ai/ha,0
same,"Plant response rating, Pigweed",[6]; 125 g ai/ha,30
same,"Plant response rating, Pigweed",[6]; 500 g ai/ha,60
same,"Plant response rating, Pigweed",[7]; 125 g ai/ha,30
same,"Plant response rating, Pigweed",[7]; 500 g ai/ha,100
same,"Plant response rating, Velvetleaf",[8]; 125 g ai/ha,10
same,"Plant response rating, Velvetleaf",[8]; 500 g ai/ha,90
same,"Plant response rating, Barnyardgrass",[9]; 125 g ai/ha,70
same,"Plant response rating, Barnyardgrass",[9]; 500 g ai/ha,100
same,"Plant response rating, Morningglory",[10]; 125 g ai/ha,0
same,"Plant response rating, Morningglory",[10]; 500 g ai/ha,70
same,"Plant response rating, Foxtail, Giant",[11]; 125 g ai/ha,70
same,"Plant response rating, Foxtail, Giant",[11]; 500 g ai/ha,80
same,"Plant response rating, Crabgrass, Large",[12]; 125 g ai/ha,60
same,"Plant response rating, Crabgrass, Large",[12]; 500 g ai/ha,80
same,"Plant response rating, Wheat",[13]; 125 g ai/ha,0
same,"Plant response rating, Wheat",[13]; 500 g ai/ha,40
same,"Plant response rating, Barnyardgrass",[14]; 125 g ai/ha,70
same,"Plant response rating, Barnyardgrass",[14]; 500 g ai/ha,80
same,"Plant response rating, Corn",corn (Zea mays) [15]; 125 g ai/ha,0
same,"Plant response rating, Corn",corn (Zea mays) [15]; 500 g ai/ha,50
same,"Plant response rating, Sedge, Umbrella",[16]; 31 g ai/ha,0
same,"Plant response rating, Sedge, Umbrella",[16]; 62 g ai/ha,0
same,"Plant response rating, Sedge, Umbrella",[16]; 125 g ai/ha,0
same,"Plant response rating, Sedge, Umbrella",[16]; 250 g ai/ha,0
same,"Plant response rating, Velvetleaf",[17]; 125 g ai/ha,50
same,"Plant response rating, Velvetleaf",[17]; 500 g ai/ha,70
same,"Plant response rating, Crabgrass, Large",[18]; 125 g ai/ha,60
same,"Plant response rating, Crabgrass, Large",[18]; 500 g ai/ha,100
same,"Plant response rating, Barnyardgrass","[19]; 31 g ai/ha, scale 0 to 100",0
same,"Plant response rating, Barnyardgrass","[19]; 62 g ai/ha, scale 0 to 100",0
same,"Plant response rating, Barnyardgrass","[19]; 125 g ai/ha, scale 0 to 100",0
same,"Plant response rating, Barnyardgrass",[19]; [20],0
same,"Plant response rating, Rice",rice (Oryza sativa); 31 g ai/ha,0
same,"Plant response rating, Rice",rice (Oryza sativa); 62 g ai/ha,0
same,"Plant response rating, Rice",rice (Oryza sativa); 125 g ai/ha,0
same,"Plant response rating, Rice",rice (Oryza sativa); 250 g ai/ha,0
"CC1(C)CC(SCc2c(C(F)(F)F)nc3n(c2=O)CCC3)=NO1 [Compound 9, 3-[[(4,5-dihydro-5,5-dimethyl-3-isoxazolyl)thio]methyl]-7,8-dihydro-2-(trifluoromethyl)pyrrolo[1,2-α]pyrimidin-4(6H)-one]","Plant response rating, Wheat",[1]; 1000 g ai/ha,0
same,"Plant response rating, Corn",corn (Zea mays) [2]; 1000 g ai/ha,0
same,"Plant response rating, Foxtail, Giant",[3]; 1000 g ai/ha,0
same,"Plant response rating, Morningglory",[4]; 1000 g ai/ha,30
same,"Plant response rating, Pigweed",[6]; 1000 g ai/ha,10
same,"Plant response rating, Pigweed",[7]; 1000 g ai/ha,0
same,"Plant response rating, Velvetleaf",[8]; 1000 g ai/ha,0
same,"Plant response rating, Barnyardgrass",[9]; 1000 g ai/ha,0
same,"Plant response rating, Morningglory",[10]; 1000 g ai/ha,0
same,"Plant response rating, Foxtail, Giant",[11]; 1000 g ai/ha,0
same,"Plant response rating, Crabgrass, Large",[12]; 1000 g ai/ha,0
same,"Plant response rating, Wheat",[13]; 1000 g ai/ha,0
same,"Plant response rating, Barnyardgrass",[14]; 1000 g ai/ha,0
same,"Plant response rating, Corn",corn (Zea mays) [15]; 1000 g ai/ha,0
same,"Plant response rating, Velvetleaf",[17]; 1000 g ai/ha,10
same,"Plant response rating, Crabgrass, Large",[18]; 1000 g ai/ha,0

# Reference: patent US20100099561A1, “HETEROBICYCLIC ALKYLTHIO-BRIDGED ISOXAZOLINES” (E.I. DU PONT DE NEMOURS AND COMPANY, priority 2008, published 2010)
